The text below walks through data of PubChem BioAssay (NCI).

Holding throughout (assay): NCI anticancer screen, dose series, 48 h
Assay [1] deals with EKVX NSCLC.
For assay [2], the system named is HCT-116 colon.
For assay [3], the system named is MCF7 breast.
In assay [4] the test system is MDA-MB-231 breast.
In assay [5] the test system is MOLT-4 leukemia.
For assay [6], the system named is PC-3 prostate.
The subject of assay [7] is RXF 393 renal.
For assay [8], the system named is SNB-19 CNS.
Assay [9] has as its system SNB-75 CNS.
The subject of assay [10] is SW-620 colon.

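Five concentrations, 48 hours, 96-well plates. At the GI50, growth is halved. TGI denotes the concentration required for complete inhibition of growth.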

Turning to `COC(=O)C1OC(O[C@H]2CC[C@]3(C)[C@H]4CC=C5[C@@H]6CC(C)(C)CC[C@]6(C(=O)OC6OCC(O)C(O)C6OC6OC(C)C(OC7OCC(OC8OCC(O)C(O)C8O)C(O)C7O)C(O)C6O)[C@H](O)C[C@@]5(C)[C@]4(C)CC[C@H]3C2(C)C)C(O)C(O)C1O` (stereo not given in full), the TGI was 5.86 µM in assay [1]; 12.9 µM in assay [2]; 6.63 µM in [3]; 9.33 µM in assay [4]; greater than 100 µM in assay [5]; 15.5 µM in assay [6]. The TGI in assay [7] worked out at 25.8 µM; in assay [8] it was 8.09 µM; in [9] it was 11.3 µM; in [10], 11.8 µM.
On to `CN1COCc2cc3cc4c(cc3nc21)OCCO4`, for which the TGI in assay [1], in assay [2], in assay [3], in assay [4], in [5] and in [6] was greater than 100 µM each time. The TGI in assay [7], in assay [8], in assay [9] and in assay [10] was greater than 100 µM each time.
Turning to `COc1ccc(-c2csc(NC(=O)CSc3nc(C)c(-c4ccccc4)n3Nc3ccccc3)n2)cc1`, the GI50 in assay [1] is 3.8 µM; in assay [2], 5.32 µM; in assay [3], 8.25 µM; in [4] it was 13.3 µM; in [5], 3.78 µM; in assay [6], 5.16 µM. The GI50 in [7] was greater than 100 µM; in [8], greater than 100 µM; in assay [9], 12.8 µM; in assay [10] it was 51.9 µM. Further, the TGI in [1], in assay [2], in assay [3], in assay [4], in [5] and in [6] was greater than 100 µM throughout. The TGI in assay [7], in assay [8], in [9] and in assay [10] was greater than 100 µM in each case.
As to `Cc1cn([C@H]2C[C@](C)(CO)N(C)O2)c(=O)[nH]c1=O`, the TGI in [1], in assay [2], in assay [3], in assay [4], in [5] and in [6] was greater than 100 µM each time. In addition, the TGI in [7], in assay [8], in assay [9] and in [10] was greater than 100 µM in each case.
With `CCN(CC)CCNc1ccc2ncn3c4cc(OC)c(OC)c(=O)c4c(O)c1c23`, the TGI in [1] amounted to 33.2 µM; in assay [2] it was 5.82 µM; in [3] it was 15.2 µM; in [4], 20.7 µM; in [5], 11.5 µM; in assay [6] it was 21 µM. Besides, the TGI was found to be 6.26 µM in [7], 22.6 µM in [8], 16.5 µM in assay [9] and 16.5 µM in [10].
On to `NS(=O)(=O)c1ccc(NC(NC(=O)C(C(F)(F)F)C(F)(F)F)(C(F)(F)F)C(F)(F)F)cc1`, for which the TGI in [1], in [2], in [3], in [4], in assay [5] and in assay [6] was greater than 100 µM each time. Also, the TGI in [7], in [8], in assay [9] and in assay [10] was greater than 100 µM throughout.
With `Cc1cc(/N=C/c2ccc(C#N)cc2)n(-c2ccccc2)n1`, the TGI in assay [1], in [2], in assay [3], in assay [4], in assay [5] and in assay [6] was greater than 100 µM each time. Besides, the TGI in assay [7], in assay [8], in [9] and in assay [10] was greater than 100 µM throughout.
Take `N#CCCN(CCC#N)c1ccc(/C=C2\SC(=S)NC2=O)cc1Br`: the TGI was greater than 100 µM in assay [1]; greater than 100 µM in assay [2]; greater than 100 µM in assay [3]; 79.6 µM in assay [4]; greater than 100 µM in assay [5]; greater than 100 µM in [6]. Further, the TGI in assay [7] was greater than 100 µM; in assay [8], 56.3 µM; in [9] it was greater than 100 µM; in assay [10], greater than 100 µM.
Regarding `COC(=O)[C@H](Cc1ccccc1)NC(=O)c1ccc(CNC(=O)/C=C/c2cccc(Oc3ccccc3)c2)cc1`, the TGI is greater than 100 µM in [1]; greater than 100 µM in [2]; greater than 100 µM in assay [3]; 48.6 µM in [4]; greater than 100 µM in assay [5]; greater than 100 µM in assay [6]. In addition, the TGI in assay [7] was 24.2 µM; in [8], greater than 100 µM; in [9], greater than 100 µM; in assay [10] it was greater than 100 µM.
Turning to `CCOC(CN(C)C(=S)Nc1cccc2ccccc12)OCC`, the TGI in [1], in [2], in [3], in [4], in assay [5] and in assay [6] was greater than 10 µM each time. Besides, the TGI in assay [7], in [8], in [9] and in assay [10] was greater than 10 µM each time.
Consider `C[C@]1(S(=O)(=O)c2ccccc2)C[C@H]2N(Cc3ccccc3)[C@@H]1CCC21OCCO1`, for which the TGI in [1], in assay [2], in [3], in assay [4], in assay [5] and in [6] was greater than 100 µM in each case. The TGI in assay [7], in assay [8], in [9] and in assay [10] was greater than 100 µM each time.
For the compound `O=C(O)c1ccc2c(c1)CC1(C2)Cc2cc3c(cc2C1=O)CCC3` (stereo not given), the TGI in assay [1], in assay [2], in assay [3], in [4], in assay [5] and in assay [6] was greater than 100 µM in each case. The TGI in assay [7], in assay [8], in assay [9] and in [10] was greater than 100 µM in each case.
Take `CCOC(=O)C1(C(=O)OCC)CCCN1C(=O)[C@H](CNC(=O)OC(C)(C)C)NC(=O)OCc1ccccc1`: the TGI in assay [1], in assay [2], in assay [3], in assay [4], in [5] and in assay [6] was greater than 100 µM in each case. In addition, the TGI in assay [7], in assay [8], in [9] and in assay [10] was greater than 100 µM each time.
On to `COc1cc2c(cc1OC)C13CC[N+]4(C)CC5=CCOC6CC(=O)N2C1C6C5CC34[O-]` (stereo not given), for which the TGI in assay [1], in assay [2], in assay [3], in assay [4], in [5] and in assay [6] was greater than 100 µM throughout. The TGI in assay [7], in [8], in assay [9] and in assay [10] was greater than 100 µM throughout.
With `C=C1C(=O)OC2/C=C(/C)C3(O)OC(C)(CC(OC(=O)C(C)C)C12)CC3OC(C)=O` (stereo not given), the TGI in assay [1] was 46.5 µM; in [2], greater than 100 µM; in [3], 26.3 µM; in [4] it was greater than 42.6 µM; in [5] it was greater than 31.6 µM; in assay [6] it was 62.9 µM. The TGI in [7] is 6.82 µM; in [8], 36.6 µM; in [9] it was greater than 100 µM; in assay [10] it was greater than 45.1 µM.
Take `Cc1ccc(S(=O)(=O)NC(=O)NNc2ccc(F)cc2)cc1`: the TGI in assay [1], in [2], in [3], in [4], in assay [5] and in assay [6] was greater than 100 µM each time. Also, the TGI in [7] is greater than 100 µM; in [8] it was greater than 100 µM; in assay [9], greater than 75.8 µM; in [10], greater than 100 µM.
As for `O/C(=C\c1nc2ccccc2nc1NC12CC3CC(CC(C3)C1)C2)c1ccc(Br)cc1`, the TGI in assay [1], in assay [2], in assay [3], in assay [4], in assay [5] and in assay [6] was greater than 10 µM each time. The TGI in assay [7], in [8], in [9] and in assay [10] was greater than 10 µM throughout.
`O=C(O)c1c2c(cc3c1CC1(Cc4ccccc4C1=O)C3)CCC2` (stereo not given): the TGI in assay [1] was greater than 100 µM; in [2], greater than 100 µM; in assay [3], greater than 100 µM; in [4], greater than 100 µM; in [5], 36 µM; in assay [6], greater than 100 µM. The TGI in assay [7] was greater than 100 µM; in [8], greater than 100 µM; in [9], greater than 94.6 µM; in assay [10], greater than 100 µM.
As for `CCOC(=O)C1CN(C2CC2)CCC1=O` (stereo not given), the TGI in assay [1], in [2], in [3], in assay [4], in assay [5] and in assay [6] was greater than 100 µM throughout. Besides, the TGI in assay [7], in assay [8], in assay [9] and in assay [10] was greater than 100 µM in each case.
As for `COc1ccc(N=NC(=Nc2ccc(F)cc2)c2ccc(N(CCC#N)CCC#N)cc2)cc1`, the TGI in assay [1] is greater than 100 µM; in [2] it was greater than 100 µM; in [3] it was greater than 100 µM; in assay [4] it was 52.8 µM; in assay [5] it was greater than 100 µM; in assay [6], 58.9 µM. Moreover, the TGI is 90 µM in assay [7], greater than 100 µM in assay [8], 84.1 µM in [9] and greater than 100 µM in [10].
On to `CC1=CC(=O)CC2(C)CCC(C(C)CC(=O)CC(C)C)CC12` (stereo not given), for which the TGI in [1] is greater than 100 µM; in assay [2], 30.4 µM; in assay [3], 66.8 µM; in assay [4] it was greater than 100 µM; in [5] it was 40.6 µM; in assay [6], 40.7 µM. The TGI in assay [7] is greater than 100 µM; in assay [8], greater than 100 µM; in assay [9], greater than 100 µM; in assay [10], 46 µM.
Turning to `COC(=O)C1(Cc2ccc3c(c2)CCC3)Cc2cc3c(cc2C1)CCC3`, the TGI is greater than 100 µM in assay [1]; greater than 100 µM in assay [2]; 58.5 µM in assay [3]; greater than 100 µM in [4]; greater than 100 µM in assay [5]; greater than 100 µM in [6]. Besides, the TGI was 68.8 µM in assay [7], greater than 100 µM in [8], greater than 100 µM in [9] and greater than 100 µM in assay [10].
As for `c1ccc(-c2cnc(-c3ccc(-c4ncc(-c5ccccc5)o4)cc3)o2)cc1`, the TGI in [1], in assay [2], in [3], in assay [4], in assay [5] and in [6] was greater than 100 µM in each case. The TGI in assay [7], in assay [8], in [9] and in assay [10] was greater than 100 µM throughout.
For the compound `OC1(c2ccc(Cl)cc2)c2ccc(CN3CCCC3)cc2C2=NCCN21` (stereo not given), the TGI in assay [1] was 32.7 µM; in assay [2], 27.1 µM; in [3], 33.4 µM; in assay [4], 27.3 µM; in assay [5], 41.9 µM; in assay [6], 27.2 µM. The TGI was 21.2 µM in assay [7], 31.1 µM in assay [8], 18.5 µM in [9] and 26.5 µM in assay [10].
For `Cc1ccc(-c2c(C#N)c(-c3ccc([N+](=O)[O-])cc3)c(C#N)c(=O)n2NS(=O)(=O)c2ccccc2)cc1`, the TGI is greater than 100 µM in assay [1]; greater than 100 µM in assay [2]; 54.1 µM in assay [3]; greater than 100 µM in [4]; 52.8 µM in assay [5]; greater than 100 µM in [6]. In addition, the TGI in assay [7], in assay [8], in [9] and in assay [10] was greater than 100 µM in each case.
